Results from patent US8653270B2, “Compounds as receptor modulators with therapeutic utility” (Allergan, Inc., priority 2010, dated 2014).

Tests used:
human S1P1 receptor = target: T1, human S1P1 receptor (Homo sapiens, UniProt P21453); assay: GTP γ35S binding assay for S1P1 activity; assay type: biochemical; settings: membranes of cells stably expressing S1P1 receptor, 30 min at 25° C.
T1 construct: expressed in transfected cells; membranes used
Protocol: Compounds were tested for S1P1 activity using the GTP γ^35S binding assay. These compounds may be assessed for their ability to activate or block activation of the human S1P1 receptor in cells stably expressing the S1P1 receptor.
GTP γ^35S binding was measured in the medium containing (mM) HEPES 25, pH 7.4, MgCl2 10, NaCl 100, dithitothreitol 0.5, digitonin 0.003%, 0.2 nM GTP γ^35S, and 5 μg membrane protein in a volume of 150 μl. Test compounds were included in the concentration range from 0.08 to 5,000 nM unless indicated otherwise. Membranes were incubated with 100 μM 5′-adenylylimmidodiphosphate for 30 min, and subsequently with 10 μM GDP for 10 min on ice. Drug solutions and membrane were mixed, and then reactions were initiated by adding GTP γ^35S and continued for 30 min at 25° C. Reaction mixtures were filtered over Whatman GF/B filters under vacuum, and washed three times with 3 mL of ice-cold buffer (HEPES 25, pH 7.4, MgCl2 10 and NaCl 100). Filters were dried and mixed with scintillant, and counted for ^35S activity using a β-counter. Agonist-induced GTP γ^35S binding was obtained by subtracting that in the absence of agonist. Binding data were analyzed using a non-linear regression method. In case of antagonist assay, the reaction mixture contained 10 nM S1P in the presence of test antagonist at concentrations ranging from 0.08 to 5000 nM. Activity potency: S1P1 receptor from GTP γ^35S: nM, (EC50),

blood lymphocytes = assay: Lymphopenia assay in mice; assay type: in vivo; settings: female C57BL6 mice, 10 mg/Kg subcutaneously, after 24 hours
Protocol: Test drugs are prepared in a solution containing 3% (w/v) 2-hydroxy propyl β-cyclodextrin (HPBCD) and 1% DMSO to a final concentration of 1 mg/ml, and subcutaneously injected to female C57BL6 mice (CHARLES RIVERS) weighing 20-25 g at the dose of 10 mg/Kg. Blood samples are obtained by puncturing the submandibular skin with a Goldenrod animal lancet at 24, 48, 72, and 96 hrs post drug application. Blood is collected into microvettes (SARSTEDT) containing EDTA tripotassium salt. Lymphocytes in blood samples are counted using a HEMAVET Multispecies Hematology System, HEMAVET HV950FS (Drew Scientific Inc.).
(Hale, J. et al Bioorg. & Med. Chem. Lett. 14 (2004) 3351).
A lymphopenia assay in mice; as previously described, was employed to measure the in vivo blood lymphocyte depletion after dosing with (2S)-2-amino-3-oxo-3-({4-[(5-phenylpentyl)oxy]-3-(2-thienyl)phenyl}amino)propyl dihydrogen phosphate. This S1P1 agonist is useful for S1P-related diseases and exemplified by the lymphopenia in vivo response. […] Lymphocytes in blood samples were counted using a HEMAVET Multispecies Hematology System, HEMAVET HV950FS (Drew Scientific Inc.). […]

T1 sequence (P21453 whole entry): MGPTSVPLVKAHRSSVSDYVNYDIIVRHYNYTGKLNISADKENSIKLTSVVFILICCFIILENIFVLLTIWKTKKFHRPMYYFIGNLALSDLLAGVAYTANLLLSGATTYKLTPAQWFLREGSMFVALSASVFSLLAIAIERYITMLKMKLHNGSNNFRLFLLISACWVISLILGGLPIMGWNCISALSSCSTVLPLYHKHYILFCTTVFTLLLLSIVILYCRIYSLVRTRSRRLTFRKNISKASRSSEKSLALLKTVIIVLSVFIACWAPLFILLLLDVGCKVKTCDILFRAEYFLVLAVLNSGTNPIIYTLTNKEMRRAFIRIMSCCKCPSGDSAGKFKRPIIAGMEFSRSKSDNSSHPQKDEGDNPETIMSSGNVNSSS

Compound | EC50 (human S1P1 receptor) | lymphocyte count (number of lymphocytes 10^3/μL blood) (blood lymphocytes)
C[C@@](N)(COP(=O)(O)O)C(=O)Nc1ccc(OCCCCCc2ccccc2)c(-c2cccs2)c1 [Compound 1, (2R)-2-amino-2-methyl-3-oxo-3-({4-[(5-phenylpentyl)oxy]-3-(2-thienyl)phenyl}amino)propyl dihydrogen phosphate] | 0.096 µM | –
C[C@](N)(COP(=O)(O)O)C(=O)Nc1ccc(OCCCCCc2ccccc2)c(-c2cccs2)c1 [Compound 2, (2S)-2-amino-2-methyl-3-oxo-3-({4-[(5-phenylpentyl)oxy]-3-(2-thienyl)phenyl}amino)propyl dihydrogen phosphate] | 0.034 µM | –
N[C@@H](COP(=O)(O)O)C(=O)Nc1ccc(OCCCCCc2ccccc2)c(-c2cccs2)c1 [Compound 4, (2S)-2-amino-3-oxo-3-({4-[(5-phenylpentyl)oxy]-3-(2-thienyl)phenyl}amino)propyl dihydrogen phosphate] | 0.003 µM | < 1 10^3/μL blood
(2S)-2-amino-3-({3-(2-furyl)-4-[(5-phenylpentyl)oxy]phenyl}amino)-3-oxopropyl dihydrogen phosphate [Compound 3] | 0.008 µM | –
